In US20230148599A1, “FUNGICIDAL MIXTURES CONTAINING PYRAZOLE DERIVATIVES” (FMC Corporation, priority 2020, published 2023):

What was measured:
Assay type in all cases: in vivo
Settings in all cases: 50 ppm, 100 = 100% disease control, 0 = no control
Septoria tritici = assay: Test A: wheat leaf blotch, preventive spray on wheat seedlings
Source text: (§1) General protocol for preparing test suspensions for Tests A-F: the test compounds were first dissolved in acetone in an amount equal to 3% of the final volume and then suspended at the desired concentration (in ppm) in acetone and purified water (50/50 mix by volume) containing 250 ppm of the surfactant PEG400 (polyhydric alcohol esters). The resulting test suspensions were then used in Tests A-F.
(§2) The test solution was sprayed to the point of run-off on wheat seedlings. The following day the seedlings were inoculated with a spore suspension of Septoria tritici (the causal agent of wheat leaf blotch) and incubated in a saturated atmosphere at 24° C. for 48 h, and then moved to a growth chamber at 20° C. for 17 days, after which time disease ratings were made.
(§3) A rating of 100 indicates 100% disease control and a rating of 0 indicates no disease control (relative to the controls). A dash (−) indicates the compound was not tested.

[1] = tested on: Puccinia recondita f. sp. tritici; assay: Test B: wheat leaf rust, preventive spray on wheat seedlings
Source text: as §1
as §2, with “Puccinia recondita f. sp.” for “Septoria”, “rust)” for “blotch)”, “20°” for “24°”, “24” for “48”, “7” for “17”
as §3

[2] = tested on: Blumeria graminis f. sp. tritici; assay: Test C: wheat powdery mildew, preventive spray on wheat seedlings
Source text: as §1
The test suspension was sprayed to the point of run-off on wheat seedlings. The following day the seedlings were inoculated with a spore dust of Blumeria graminis f. sp. tritici, (also known as Erysiphe graminis f. sp. tritici, the causal agent of wheat powdery mildew) and incubated in a growth chamber at 20° C. for 8 days, after which time visual disease ratings were made.
as §3

Phakopsora pachyrhizi = assay: Test D: Asian soybean rust, preventive spray on soybean seedlings
Source text: as §1
The test solution was sprayed to the point of run-off on soybean seedlings. The following day the seedlings were inoculated with a spore suspension of Phakopsora pachyrhizi (the causal agent of Asian soybean rust) and incubated in a saturated atmosphere at 22° C. for 24 h and then moved to a growth chamber at 22° C. for 8 days, after which time visual disease ratings were made.
as §3

Botrytis cinerea = assay: Test E: tomato Botrytis, preventive spray on tomato seedlings
Source text: as §1
(§4) The test suspension was sprayed to the point of run-off on tomato seedlings. The following day the seedlings were inoculated with a spore suspension of Botrytis cinerea (the causal agent of tomato Botrytis) and incubated in a saturated atmosphere at 20° C. for 48 h, and then moved to a growth chamber at 24° C. for 3 days, after which time visual disease ratings were made.
as §3

Alternaria solani = assay: Test F: tomato early blight, preventive spray on tomato seedlings
Source text: as §1
as §4, with “Alternaria solani” for “Botrytis cinerea”, “early blight)” for “Botrytis)”, “27°” for “20°”, “20°” for “24°”
as §3

Compound | Test A disease control rating (Septoria tritici) | Test B disease control rating [1] | Test C disease control rating [2] | Test D disease control rating (Phakopsora pachyrhizi) | Test E disease control rating (Botrytis cinerea) | Test F disease control rating (Alternaria solani)
COc1ccc(-c2c(C)nn(C)c2Nc2c(F)cccc2[N+](=O)[O-])c(Cl)c1 [compound 27] | 100% | 100% | 91% | 87% | 100% | 99%
Cc1nn(C)c(Nc2ccc(OC(F)F)cc2[N+](=O)[O-])c1-c1ccc(F)cc1Cl [compound 28] | 91% | 68% | 69% | 0% | 99% | 0%
Cc1nn(C)c(Nc2ccc(OCC#N)cc2[N+](=O)[O-])c1-c1ccc(F)cc1Cl [compound 29] | 97% | 98% | 87% | 81% | 99% | 26%
Cc1nn(C)c(Nc2cc(F)ccc2[N+](=O)[O-])c1-c1ccc(F)cc1Cl [compound 30] | 100% | 86% | 91% | 0% | 67% | 0%
Cc1cc(Cl)c(Nc2c(-c3ccc(F)cc3Cl)c(C)nn2C)c([N+](=O)[O-])c1 [compound 31] | 100% | 100% | 100% | 98% | 99% | 76%
Cc1nn(C)c(Nc2cc(F)c(F)cc2[N+](=O)[O-])c1-c1ccc(F)cc1Cl [compound 32] | 93% | 85% | 56% | 98% | 99% | 0%
Cc1cc(Cl)cc([N+](=O)[O-])c1Nc1c(-c2ccc(F)cc2Cl)c(C)nn1C [compound 33] | 100% | 100% | 99% | 92% | 99% | 85%
COc1ccc(-c2c(C)nn(C)c2Nc2c(Cl)cccc2[N+](=O)[O-])c(C)c1 [compound 35] | 99% | 85% | 0% | 0% | 0% | 0%
Cc1nn(C)c(Nc2ccc(OCC(F)F)cc2[N+](=O)[O-])c1-c1ccc(F)cc1Cl [compound 36] | 100% | 89% | 56% | 25% | 100% | 0%
Cc1nn(C)c(Nc2c(Cl)cc(Cl)cc2[N+](=O)[O-])c1-c1ccc(F)cc1Br [compound 37] | 100% | 100% | 98% | 0% | 88% | 78%
Cc1nn(C)c(Nc2c(Cl)cccc2[N+](=O)[O-])c1-c1c(F)cccc1Cl [compound 38] | 100% | 99% | 95% | 0% | 88% | 0%
Cc1nn(C)c(Nc2c(F)cc(F)cc2[N+](=O)[O-])c1-c1c(F)cccc1Cl [compound 39] | 100% | 100% | 99% | 73% | 88% | 99%
Cc1cc(F)c(Nc2c(-c3ccc(F)cc3Br)c(C)nn2C)c([N+](=O)[O-])c1 [compound 40] | 100% | 100% | 100% | 82% | 98% | 100%
Cc1nn(C)c(Nc2c(Cl)cccc2[N+](=O)[O-])c1-c1ccc(F)cc1Br [compound 41] | 100% | 100% | 94% | 77% | 77% | 0%
Cc1cccc([N+](=O)[O-])c1Nc1c(-c2ccc(F)cc2Br)c(C)nn1C [compound 42] | 100% | 100% | 96% | 0% | 91% | 0%
Cc1nn(C)c(Nc2c(Cl)cc(F)cc2[N+](=O)[O-])c1-c1ccc(F)cc1Br [compound 43] | 100% | 100% | 97% | 65% | 96% | 64%
Cc1nn(C)c(Nc2ccc(F)cc2[N+](=O)[O-])c1-c1c(F)cccc1Cl [compound 44] | 100% | 99% | 98% | 0% | 95% | 46%
CCc1nn(C)c(Nc2ccc(OC)cc2[N+](=O)[O-])c1-c1ccc(F)cc1F [compound 45] | 100% | 86% | 95% | 0% | 99% | 33%
CCc1nn(C)c(Nc2c(F)cccc2[N+](=O)[O-])c1-c1ccc(F)cc1F [compound 46] | 100% | 98% | 99% | 0% | 99% | 81%
Cc1nn(C)c(Nc2c(F)cc(I)cc2[N+](=O)[O-])c1-c1ccc(F)cc1Cl [compound 47] | 100% | 97% | 89% | 92% | 95% | 96%
COc1ccc(-c2c(C)nn(C)c2Nc2c(F)cccc2[N+](=O)[O-])c(C)c1 [compound 48] | 100% | 95% | 89% | 0% | 97% | 97%
Cc1nn(C)c(Nc2c(Cl)cc(F)cc2[N+](=O)[O-])c1-c1c(F)cccc1Cl [compound 49] | 100% | 100% | 95% | 25% | 94% | 26%
CCc1nn(C)c(Nc2c(F)cc(F)cc2[N+](=O)[O-])c1-c1ccc(F)cc1F [compound 50] | 100% | 98% | 100% | 0% | 92% | 98%
Cc1nn(C)c(Nc2c(F)cc(F)cc2[N+](=O)[O-])c1-c1ccc(F)cc1Br [compound 51] | 100% | 100% | 100% | 79% | 98% | 99%
COc1ccc(Nc2c(-c3ccc(F)cc3Br)c(C)nn2C)c([N+](=O)[O-])c1 [compound 52] | 100% | 100% | 90% | 59% | 99% | 94%
